# Assay results reported in US20200214998A1, “Method for Treating a Brain Cancer” (Allianz Pharmascience Ltd., priority 2019, published 2020).
# Test system: U87MG-R
# Assay: Orthotopic TMZ-resistant GBM mouse model, intracranial U87MG-R
# Settings: TMZ (15 mg/kg oral) plus vehicle; untreated control 21 days
# Description: Animal survival was evaluated from the first day of treatment until death.
# TMZ-resistant GBM inoculated orthotopic mice were randomly grouped and treated with TMZ or TMZ plus JM17.
# Briefly, a skull burr hole was first created in the right frontal brain area. An ultra-fine needle was then inserted to a depth of 3 mm using stereostatic guiding, and 5×10^5 TMZ-resistant cells were injected.
# Twenty-eight-week-old nude mice received U87MG-R transplantation. Five days later, these animals were randomized into four treatment groups (7 animals per group), which received TMZ (15 mg/kg) by oral gavage and JM17 by the intravenous injection three times per week (Day 1, 3, 5 of the week) as follows: Control (untreated), TMZ plus vehicle, TMZ plus JM17 (5 mg/kg) and TMZ plus JM17 (20 mg/kg) (FIG. 5).
compound,measurement,value
"Cn1nnc2c(C(N)=O)ncn2c1=O [TMZ, temozolomide]",median survival,20 days
